Activity calls are given as the source filed them.
What was measured:
[1] = Partition coefficient (logP); assay type: physicochemical; settings: octanol/water
Oryctolagus cuniculus [2] = organism: Oryctolagus cuniculus; experiment: Inhibition of increase in potential difference caused by diarrhea inducing secretogogues determined in rabbit; 0 = inactive; assay type: functional
Rattus norvegicus [3] = organism: Rattus norvegicus; experiment: animal or person; settings: sc, read-out: ID50
Oryctolagus cuniculus [4] = organism: Oryctolagus cuniculus; experiment: Inhibition of increase in potential difference caused by diarrhea inducing secretogogues determined in rabbit; + = moderate activity; assay type: functional, organism-based
Rattus norvegicus [5] = organism: Rattus norvegicus; experiment: Activity in the spontaneously hypertensive rats (SHR); inactive = post treatment BP did not change; assay type: functional, organism-based
Oryctolagus cuniculus [6] = organism: Oryctolagus cuniculus; experiment: Inhibition of increase in potential difference caused by diarrhea inducing secretogogues determined in rabbit; ++ = active; assay type: functional, organism-based
Rattus norvegicus [7] = assay type: functional; settings: po, read-out: ID50 (the source's name)
Rattus norvegicus [8] = organism: Rattus norvegicus; experiment: Activity in the spontaneously hypertensive rats (SHR); active = post treatment BP changed; assay type: functional, organism-based
Rattus norvegicus [9] = assay type: functional; settings: sc, read-out: ID50 (the source's name)
Rattus norvegicus [10] = organism: Rattus norvegicus; experiment: Activity in the spontaneously hypertensive rats (SHR); rats died due to exophthalmic side effects; assay type: functional, organism-based
Oryctolagus cuniculus [11] = organism: Oryctolagus cuniculus; experiment: IInhibition of increase in potential difference caused by diarrhea inducing secretogogues determined in rabbit; 0 = inactive; assay type: functional
Rattus norvegicus [12] = organism: Rattus norvegicus; experiment: Activity in the spontaneously hypertensive rats (SHR); rats died due to convulsive side effects; assay type: functional, organism-based

SMILES | logP ([1]; read-out: logP) | Activity (Oryctolagus cuniculus [2]) | ED50 (Rattus norvegicus [3]) [mg/kg] | other results
CCC(Oc1c(C)cccc1C)C1=NCCN1 (centres undefined) | 4.88 | 0 | 5.2 | –
Cc1cccc(C)c1OCC1=NCCN1 | – | – | > 100 | Activity (Oryctolagus cuniculus [4]): moderate activity
CCc1cccc(CC)c1OC(C)C1=NCCN1 (centres undefined) | 5.41 | – | 2.3 | Activity (Rattus norvegicus [5]): inactive; Activity (Oryctolagus cuniculus [6]): Active
CCC(Oc1cccc(N)c1C)C1=NCCN1 (centres undefined) | 3.19 | – | 4.5 | ED50 (Rattus norvegicus [7]): 5.2 mg/kg; Activity (Rattus norvegicus [8]): Active
CC(Oc1cccc(N)c1)C1=NCCN1 (centres undefined) | – | 0 | > 100 | –
Cc1cccc(C)c1OC(C)C1=NCCS1 (centres undefined) | – | 0 | > 100 | –
Cc1cccc(C)c1OC(C)(C)C1=NCCN1 | 4.66 | – | 3.7 | Activity (Oryctolagus cuniculus [6]): Active
C=CCc1cccc(CC=C)c1OC(C)C1=NCCN1 (centres undefined) | – | – | > 100 | –
Cc1cccc(C)c1OC(C)C1=NCCCN1 (centres undefined) | – | 0 | > 100 | –
Cc1cccc(C)c1OC(CCO)C1=NCCN1 (centres undefined) | 2.89 | – | 6.9 | Activity (Rattus norvegicus [5]): inactive; Activity (Oryctolagus cuniculus [4]): moderate activity
CCc1ccccc1OC(C)C1=NCCN1 (centres undefined) | 4.23 | – | 22.9 | Activity (Oryctolagus cuniculus [4]): moderate activity
Cc1cc(C(=O)O)cc(C)c1OC(C)C1=NCCN1 (centres undefined) | – | 0 | > 100 | –
Cc1c(N)cccc1OC(C)C1=NCCN1.Cl.Cl (centres undefined) | – | – | 5.6 | logP [1]: 2; ED50 (Rattus norvegicus [7]): 1.3 mg/kg
Cc1cccc(C)c1OC(C)C1=NC2CCCCC2N1 (centres undefined) | – | – | 24.1 | –
Cc1ccc(OC(C)C2=NCCN2)c(C)c1 (centres undefined) | 4.35 | – | 24.1 | –
CCOC(=O)Nc1cccc(OC(C)C2=NCCN2)c1C (centres undefined) | 3.27 | 0 | 9.5 | ED50 (Rattus norvegicus [7]): 4.6 mg/kg; Activity (Rattus norvegicus [8]): Active
CC(Oc1ccc2ccccc2c1)C1=NCCN1 (centres undefined) | – | 0 | > 100 | –
Cc1c(OCc2ccccc2)cccc1OC(C)C1=NCCN1 (centres undefined) | – | – | > 100 | Activity (Oryctolagus cuniculus [4]): moderate activity
CC(Oc1c(Cl)cccc1Cl)C1=NCCN1 (centres undefined) [LOFEXIDINE] | – | – | < 2 | –

SMILES | logP ([1]; read-out: logP) | Activity (Oryctolagus cuniculus [2]) | ED50 (Rattus norvegicus [3]) [mg/kg] | other results
Cc1cccc(C)c1SC(C)C1=NCCN1 (centres undefined) | – | 0 | > 100 | –
Cc1c(N)cccc1OC(C)C1=NCCN1 (centres undefined) | – | – | – | Activity (Oryctolagus cuniculus [6]): Active
Cc1c(N)cc(N)c(C)c1OC(C)C1=NCCN1 (centres undefined) | – | – | – | ED50 (Rattus norvegicus [9]): 32 mg/kg
Cc1cc(C(=O)OC(C)(C)C)cc(C)c1OC(C)C1=NCCN1 (centres undefined) | – | – | > 100 | –
Cc1c(O)cccc1OC(C)C1=NCCN1 (centres undefined) | 3.21 | – | 17.2 | Activity (Rattus norvegicus [5]): inactive; Activity (Oryctolagus cuniculus [4]): moderate activity
COc1cccc(OC(C)C2=NCCN2)c1C (centres undefined) | – | – | > 100 | –
Cc1cc2[nH]cnc2c(C)c1OC(C)C1=NCCN1 (centres undefined) | – | 0 | > 100 | –
Clc1cccc(Cl)c1NC1=NCCN1 [CLONIDINE] | – | – | 0.3 | –
Cc1cccc(C)c1NC(C)C1=NCCN1 (centres undefined) | – | 0 | > 100 | –
Cc1ccc2ccccc2c1OC(C)C1=NCCN1 (centres undefined) | – | 0 | > 100 | –
Cc1cccc(C)c1OC(C)c1nc2ccccc2[nH]1 (centres undefined) | – | – | > 100 | –
Cc1c(N)cccc1OC(CCO)C1=NCCN1 (centres undefined) | 1.2 | – | 1.2 | Activity (Rattus norvegicus [10]): rats died due to exophthalmic side effects; ED50 (Rattus norvegicus [7]): 1.3 mg/kg
Cc1c(N)cccc1OC(C)C1=NCCN1 (single isomer, unassigned) | – | – | – | Activity (Rattus norvegicus [8]): Active
Cc1c(N)cccc1OC(C)C1=NCCN1 (stereo in doubt; 32) [listing 1 of 2 here] | 2 | – | – | –
Cc1ccc(N)cc1OC(C)C1=NCCN1 (centres undefined) | – | 0 | > 100 | –
Cc1ncccc1OC(C)C1=NCCN1 (centres undefined) | – | – | – | ED50 (Rattus norvegicus [9]): > 100 mg/kg
Cc1cc([N+](=O)[O-])cc(C)c1OC(C)C1=NCCN1 (centres undefined) | – | 0 | > 100 | –
Cc1cccc(C)c1CC(C)C1=NCCN1 (centres undefined) | – | 0 | > 100 | –
Cc1c(OC(C)C2=NCCN2)cccc1N(C)C (centres undefined) | 4 | 0 | 4 | –

SMILES | logP ([1]; read-out: logP) | Activity (Oryctolagus cuniculus [2]) | ED50 (Rattus norvegicus [3]) [mg/kg] | other results
CC(Oc1cccc2ccccc12)C1=NCCN1 (centres undefined) | 4.35 | 0 | 17.9 | Activity (Rattus norvegicus [5]): inactive; ED50 (Rattus norvegicus [7]): 16.1 mg/kg
COc1cccc(OC)c1OC(C)C1=NCCN1 (centres undefined) | – | – | > 100 | –
Cc1cc(N)cc(C)c1OC(C)C1=NCCN1 (centres undefined) | – | – | > 100 | Activity (Oryctolagus cuniculus [11]): 0
CC(Oc1cccn2ncnc12)C1=NCCN1.CO (centres undefined) | – | – | 26.5 | –
Cc1cc(C)c(OC(C)C2=NCCN2)cc1N (centres undefined) | 3.01 | 0 | 7.8 | –
Cc1ccc2[nH]ccc2c1OC(C)C1=NCCN1.ClCCl (centres undefined) | 3.77 | – | 1.6 | Activity (Rattus norvegicus [12]): rats died due to convulsive side effects; ED50 (Rattus norvegicus [7]): 1.2 mg/kg
CCOC(=O)Nc1ccc(C)c(OC(C)C2=NCCN2)c1C (centres undefined) | 4.4 | – | 3 | Activity (Oryctolagus cuniculus [4]): moderate activity; Activity (Rattus norvegicus [8]): Active
Cc1cc(Br)c(N)c(C)c1OC(C)C1=NCCN1 (centres undefined) | – | – | > 100 | –
CC(Oc1cncc2ccccc12)C1=NCCN1 (centres undefined) | – | – | 21.7 | –
Cc1cccc(C)c1OC(C)C1=NCCN1C (centres undefined) | – | – | 32.4 | –
Cc1cc(C)c(OC(C)C2=NCCN2)c(C)c1 (centres undefined) | 5 | 0 | 11.1 | Activity (Rattus norvegicus [5]): inactive
Cc1c(N)cccc1OC(C)C1=NCCN1 (stereo in doubt; 32) [listing 2 of 2 here] | – | – | – | Activity (Rattus norvegicus [8]): Active
Cc1cc(Br)cc(C)c1OC(C)C1=NCCN1 (centres undefined) | – | – | > 100 | –
Cc1cccc(C)c1OC(C)C1=NCCN1 (centres undefined) | 4.39 | – | 1.7 | Activity (Oryctolagus cuniculus [6]): Active; ED50 (Rattus norvegicus [7]): 2.7 mg/kg
CCCc1cccc(CCC)c1OC(C)C1=NCCN1 (centres undefined) | – | – | > 100 | Activity (Oryctolagus cuniculus [4]): moderate activity
Cc1ccc(N)c(C)c1OC(C)C1=NCCN1 (centres undefined) | 3.31 | – | 1 | Activity (Oryctolagus cuniculus [6]): Active; Activity (Rattus norvegicus [8]): Active
CC(=O)Nc1cccc(OC(C)C2=NCCN2)c1C (centres undefined) | 2.43 | 0 | 7 | –
CC(Oc1cccc2[nH]ccc12)C1=NCCN1 (centres undefined) | 3.12 | – | 5.7 | Activity (Oryctolagus cuniculus [6]): Active; ED50 (Rattus norvegicus [7]): 6.6 mg/kg; Activity (Rattus norvegicus [8]): Active

Source: ChEMBL document CHEMBL1125050, “Potential antisecretory antidiarrheals. 2. Alpha 2-adrenergic 2-[(aryloxy)alkyl]imidazolines” (J Med Chem, 1990)
